Counter-ions that a name gives are not always drawn.
Target: recombinant human AMCase (Homo sapiens, UniProt Q9BZP6)
Assay: Human AMCase Activity Assay
Assay type: biochemical
Details: recombinant hAMCase, 4-methylumbelliferyl chitobioside substrate, citrate buffer pH 5.2, 37° C., 60 minutes; read-out: Activity (IC50 value key)
Procedure: Human AMCase Activity Assay
The assay was run in the 96-well plate format, each reaction in the total volume of 100 μl. 4-Methylumbelliferyl B-D-N,N′ diacetylchitobioside hydrate was used as a substrate for the enzyme. Upon hydrolysis by AMCase, the substrate releases 4-methylumbelliferyl (4MU), when ionized in basic pH, emits fluorescence of 460 nm.
Briefly, 40 μl of a substrate was added to each well, followed by 10 μl of compound dilution and 50 μl of hAMCase recombinant enzyme solution. The reaction was carried out in citrate buffer, pH 5.2, in the dark, at 37° C. for 60 minutes with shaking.

Chain of recombinant human AMCase (Q9BZP6 22-476): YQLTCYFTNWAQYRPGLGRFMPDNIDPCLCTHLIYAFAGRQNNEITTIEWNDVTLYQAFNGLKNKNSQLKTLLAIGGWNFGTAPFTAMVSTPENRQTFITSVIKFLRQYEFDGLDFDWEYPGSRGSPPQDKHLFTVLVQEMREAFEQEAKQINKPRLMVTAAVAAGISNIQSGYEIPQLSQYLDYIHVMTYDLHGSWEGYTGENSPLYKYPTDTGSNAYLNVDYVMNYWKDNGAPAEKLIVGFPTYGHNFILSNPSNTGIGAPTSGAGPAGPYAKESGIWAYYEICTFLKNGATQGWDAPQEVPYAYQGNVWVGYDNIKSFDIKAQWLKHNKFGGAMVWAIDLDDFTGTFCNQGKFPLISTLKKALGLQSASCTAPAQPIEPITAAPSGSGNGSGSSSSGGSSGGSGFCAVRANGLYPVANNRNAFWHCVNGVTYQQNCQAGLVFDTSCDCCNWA

Structure (SMILES)	IC50 [µM]
CC1CN(c2nc(N)n[nH]2)CCC1NCCc1ccc(Cl)cc1 (mixture of isomers) [Example 132, 1-(3-amino-1H-1,2,4-triazol-5-yl)-N-(4-chlorophenethyl)-3-methylpiperidin-4-amine dihydrochloride (4:1 diastereoisomeric mixture)]	0.1 to 1
CCCC1CN(c2nc(N)n[nH]2)CCC1NCCc1ccc(Cl)cc1 (single isomer, unassigned) [Example 231, 1-(3-amino-1H-1,2,4-triazol-5-yl)-N-(4-chlorophenethyl)-3-propylpiperidin-4-amine]	0.1 to 1
CCCC1CN(c2nc(N)n[nH]2)CCC1NCCc1ccc(Cl)cc1 (single isomer, unassigned) [Example 234, 1-(3-amino-1H-1,2,4-triazol-5-yl)-N-(4-chlorophenethyl)-3-propylpiperidin-4-amine]	0.1 to 1
Nc1n[nH]c(N2CCN(CCOc3ccc(F)cc3)CC2)n1 [Example 1, 5-(4-(2-(4-fluorophenoxy)ethyl)piperazin-1-yl)-1H-1,2,4-triazol-3-amine]	> 100
Nc1n[nH]c(N2CCN(CCOc3ccc(Cl)cc3)CC2)n1 [Example 2, 5-(4-(2-(4-chlorophenoxy)ethyl)piperazin-1-yl)-1H-1,2,4-triazol-3-amine]	1 to 10
CCOc1ccc(CN2CCN(c3nc(N)n[nH]3)CC2)cc1 [Example 3, 5-(4-(4-ethoxybenzyl)piperazin-1-yl)-1H-1,2,4-triazol-3-amine]	> 100
CCC(Oc1ccc(Br)cc1)C(=O)N1CCN(c2nc(N)n[nH]2)CC1 (centres unmarked) [Example 5, 1-[4-(3-amino-1H-1,2,4-triazol-5-yl)piperazin-1-yl]-2-(4-bromophenoxy)butan-1-one]	> 100
C[C@@H](Oc1ccc(Br)cc1)C(=O)N1CCN(c2nc(N)n[nH]2)CC1 [Example 6, (R)-1-(4-(3-amino-1H-1,2,4-triazol-5-yl)piperazin-1-yl)-2-(4-bromophenoxy)propan-1-one]	> 100
C[C@H](Oc1ccc(Br)cc1)C(=O)N1CCN(c2nc(N)n[nH]2)CC1 [Example 7, (S)-1-(4-(3-amino-1H-1,2,4-triazol-5-yl)piperazin-1-yl)-2-(4-bromophenoxy)-propan-1-one]	> 100
CCC(Oc1ccc(Cl)cc1)C(=O)N1CCN(c2nc(N)n[nH]2)CC1 (centres unmarked) [Example 8, 1-(4-(3-amino-1H-1,2,4-triazol-5-yl)piperazin-1-yl)-2-(4-chlorophenoxy)-butan-1-one]	> 100
C[C@@H](Oc1ccc(Cl)cc1)C(=O)N1CCN(c2nc(N)n[nH]2)CC1 [Example 9, (R)-1-(4-(3-amino-1H-1,2,4-triazol-5-yl)piperazin-1-yl)-2-(4-chlorophenoxy)-propan-1-one]	> 100
C[C@H](Oc1ccc(Cl)cc1)C(=O)N1CCN(c2nc(N)n[nH]2)CC1 [Example 10, (S)-1-(4-(3-amino-1H-1,2,4-triazol-5-yl)piperazin-1-yl)-2-(4-chlorophenoxy)propan-1-one]	> 100
Nc1n[nH]c(N2CCC(CNS(=O)(=O)c3ccc(Br)cc3)CC2)n1 [Example 12, N-((1-(3-amino-1H-1,2,4-triazol-5-yl)piperidin-4-yl)methyl)-4-bromobenzenesulfonamide]	> 100
Nc1n[nH]c(N2CCC(NS(=O)(=O)Cc3ccc(Cl)cc3)CC2)n1 [Example 14, N-(1-(3-amino-1H-1,2,4-triazol-5-yl)piperidin-4-yl)-1-(4-chlorophenyl)methanesulfonamide dihydrochloride]	1 to 10
Nc1n[nH]c(N2CCC(NS(=O)(=O)Cc3ccc(Cl)c(Cl)c3)CC2)n1 [Example 15, N-(1-(3-amino-1H-1,2,4-triazol-5-yl)piperidin-4-yl)-1-(3,4-dichlorophenyl)methanesulfonamide]	10 to 100
Nc1n[nH]c(N2CCC(C(=O)NCc3ccc(Cl)c(Cl)c3)CC2)n1 [Example 17, 1-(3-amino-1H-1,2,4-triazol-5-yl)-N-(3,4-dichlorobenzyl)piperidine-4-carboxamide]	> 100
CC(CCc1ccc(Br)cc1)N1CCN(c2nc(N)n[nH]2)CC1 (centres unmarked) [Example 19, 5-(4-(4-(4-bromophenyl)butan-2-yl)piperazin-1-yl)-1H-1,2,4-triazol-3-amine]	10 to 100
CC(CN1CCN(c2nc(N)n[nH]2)CC1)Oc1ccc(Br)cc1 (centres unmarked) [Example 20-1, 5-(4-(2-(4-bromophenoxy)propyl)piperazin-1-yl)-1H-1,2,4-triazol-3-amine]	10 to 100
CC(COc1ccc(Br)cc1)N1CCN(c2nc(N)n[nH]2)CC1 (centres unmarked) [Example 20-2, 5-(4-(1-(4-bromophenoxy)propan-2-yl)piperazin-1-yl)-1H-1,2,4-triazol-3-amine]	10 to 100
Nc1n[nH]c(N2CCC(NCCc3ccc(Br)cc3)CC2)n1 [Example 22, 1-(3-amino-1H-1,2,4-triazol-5-yl)-N-(4-bromophenethyl)piperidin-4-amine]	1 to 10
Nc1n[nH]c(N2CCN(CCOc3ccc(Cl)c4ccccc34)CC2)n1 [Example 23, 5-(4-(2-((4-chloronaphthalen-1-yl)oxy)ethyl)piperazin-1-yl)-1H-1,2,4-triazol-3-amine]	1 to 10

Structure (SMILES)	IC50 [µM]
Nc1n[nH]c(N2CCN(C(=O)COc3ccc(Cl)cc3)CC2)n1 [Example 24, 1-(4-(3-amino-1H-1,2,4-triazol-5-yl)piperazin-1-yl)-2-(4-chlorophenoxy)-ethanone]	> 100
Nc1n[nH]c(N2CCN(C(=O)COc3ccc4ccccc4c3)CC2)n1 [Example 25, 1-(4-(3-amino-1H-1,2,4-triazol-5-yl)piperazin-1-yl)-2-(naphthalen-2-yloxy) ethanone]	> 100
CC1CN(c2nc(N)n[nH]2)CCN1CCOc1ccc(Br)cc1 (centres unmarked) [Example 26, 5-(4-(2-(4-bromophenoxy)ethyl)-3-methylpiperazin-1-yl)-1H-1,2,4-triazol-3-amine]	1 to 10
Cn1nc(N2CCN(CCOc3ccc(Br)cc3)CC2)nc1N [Example 27-1, 3-(4-(2-(4-bromophenoxy)ethyl)piperazin-1-yl)-1-methyl-1H-1,2,4-triazol-5-amine]	> 100
Cn1nc(N)nc1N1CCN(CCOc2ccc(Br)cc2)CC1 [Example 27-2, 5-(4-(2-(4-bromophenoxy)ethyl)piperazin-1-yl)-1-methyl-1H-1,2,4-triazol-3-amine]	> 100
Nc1n[nH]c(N2CCCN(CCOc3ccc(Br)cc3)CC2)n1 [Example 28, 5-{4-[2-(4-bromophenoxy)ethyl]-[1,4]-diazepan-1-yl}-1H-1,2,4-triazol-3-amine]	> 100
Nc1n[nH]c(N2CC3CN(CCOc4ccc(Br)cc4)CC3C2)n1 (centres unmarked) [Example 29, 5-(5-(2-(4-bromophenoxy)ethyl)hexahydropyrrolo[3,4-c]pyrrol-2(1H)-yl)-1H-1,2,4-triazol-3-amine]	> 100
Nc1n[nH]c(N2CCN(C(=O)COc3ccccc3)CC2)n1 [Example 30, 1-(4-(3-amino-1H-1,2,4-triazol-5-yl)piperazin-1-yl)-2-phenoxyethanone]	> 100
CCc1ccc(OC(C)C(=O)N2CCN(c3nc(N)n[nH]3)CC2)cc1 (centres unmarked) [Example 31, 1-(4-(3-amino-1H-1,2,4-triazol-5-yl)piperazin-1-yl)-2-(4-ethylphenoxy)propan-1-one]	> 100
Cc1ccccc1OC(C)C(=O)N1CCN(c2nc(N)n[nH]2)CC1 (centres unmarked) [Example 32, 1-(4-(3-amino-1H-1,2,4-triazol-5-yl)piperazin-1-yl)-2-(o-tolyloxy)propan-1-one]	> 100
CCc1ccccc1OC(C)C(=O)N1CCN(c2nc(N)n[nH]2)CC1 (centres unmarked) [Example 33, 1-(4-(3-amino-1H-1,2,4-triazol-5-yl)piperazin-1-yl)-2-(2-ethylphenoxy)propan-1-one]	> 100
Cc1ccc(C)c(OC(C)C(=O)N2CCN(c3nc(N)n[nH]3)CC2)c1 (centres unmarked) [Example 34, 1-(4-(3-amino-1H-1,2,4-triazol-5-yl)piperazin-1-yl)-2-(2,5-dimethylphenoxy)propan-1-one]	> 100
Cc1ccc(OC(C)C(=O)N2CCN(c3nc(N)n[nH]3)CC2)c(C)c1 (centres unmarked) [Example 35, 1-(4-(3-amino-1H-1,2,4-triazol-5-yl)piperazin-1-yl)-2-(2,4-dimethylphenoxy)propan-1-one]	> 100
Cc1cccc(OC(C)C(=O)N2CCN(c3nc(N)n[nH]3)CC2)c1 (centres unmarked) [Example 36, 1-(4-(3-amino-1H-1,2,4-triazol-5-yl)piperazin-1-yl)-2-(m-tolyloxy)propan-1-one]	> 100
CC(Oc1cccc(F)c1F)C(=O)N1CCN(c2nc(N)n[nH]2)CC1 (centres unmarked) [Example 37, 1-(4-(3-amino-1H-1,2,4-triazol-5-yl)piperazin-1-yl)-2-(2,3-difluorophenoxy)propan-1-one]	> 100
Nc1n[nH]c(N2CCNCC2)n1 [Example 38, 5-(piperazin-1-yl)-1H-1,2,4-triazol-3-amine trihydrochloride]	> 100
CC(Cc1ccc(Br)cc1)CN1CCN(c2nc(N)n[nH]2)CC1 (centres unmarked) [Example 39, 5-(4-(3-(4-bromophenyl)-2-methylpropyl)piperazin-1-yl)-1H-1,2,4-triazol-3-amine dihydrochloride]	1 to 10
Nc1n[nH]c(N2CCN(C(=O)CC(N)c3ccc(Cl)cc3)CC2)n1 (centres unmarked) [Example 40, 3-amino-1-(4-(3-amino-1H-1,2,4-triazol-5-yl)piperazin-1-yl)-3-(4-chlorophenyl)propan-1-one]	> 100
Nc1n[nH]c(N2CCC(c3nc(-c4ccc5c(c4)OCO5)no3)CC2)n1 [Example 41, 5-(4-(3-(benzo[d][1,3]dioxol-5-yl)-1,2,4-oxadiazol-5-yl)piperidin-1-yl)-1H-1,2,4-triazol-3-amine]	> 100
CS(=O)(=O)c1ccc(-c2noc(C3CCN(c4nc(N)n[nH]4)CC3)n2)cc1 [Example 42, 5-(4-(3-(4-(methylsulfonyl)phenyl)-1,2,4-oxadiazol-5-yl)piperidin-1-yl)-1H-1,2,4-triazol-3-amine]	> 100
